Source: patent US9492428B2, “Compounds, compositions, pharmaceutical compositions, and methods of use” (University of Louisville Research Foundation, Inc., priority 2011, dated 2016)

Assays:
Type in all cases: cell-based, human
[1] = system: PC3 prostate cancer cells; assay: MTT cell proliferation assay in PC3; settings: after three days of treatment
Experimental: FIG. 8. Cell proliferation assay. (A) DU145 or PC3 prostate cancer were plated at a density of 1,500 cells per well in 96-well plates and incubated 18 hours at 37° C. to allow adherence. They were untreated or treated by addition of different concentrations of compound I-1 (which were added directly to the medium) or vehicle (DMSO), and proliferation was measured using a 3-(4,5-dimethylthiazol-2-yl)-2,5-diphenyltetrazolium bromide MTT assay after 3 days of treatment. Points, mean of triplicate normalized samples to vehicle sample; bars, SE. (B) GI50 after 3 days of treatment. (C) Prostate cancer cells (DU145 or PC3) or a non-malignant epithelial cells (RWPE-1) were plated at a density of 1,000 cells per well in 96-well plates and incubated 18 hours at 37° C. to allow adherence. They were untreated or treated by addition of different concentrations of compound I-1 (added directly to the medium) or vehicle (DMSO), and proliferation was by MTT assay after 5 days of treatment. Points, mean of triplicate normalized samples to vehicle sample; bars, SE.
General Experimental Procedure. Compound I-1 was isolated as described in Example Set 1, above. For samples of compound I-1 used in Example Set 2, HPLC and NMR indicated a purity of at least 95%. All experiments described in Example Set 2 were repeated at least two or three times. […]

DU145 cells = assay: Clonogenic assay in DU145
Experimental: FIG. 7. Clonogenic assays in prostate cancer cells treated with compound I-1. Prostate cancer cells, DU145 (A) or PC3 (B), were plated at very low density in 6-well plates and incubated 18 h at 37° C. Cells were treated by addition of various concentrations of compound I-1 or with an equivalent volume of vehicle (DMSO), or were left untreated. After 10 days of treatment, cells were washed with cold PBS, fixed with paraformaldehyde, and stained with crystal violet solution.
Clonogenic Assay. Cells in fresh complete medium were plated at very low density (3×10^2 per well) into six-well plates for 18 h. After complete adhesion, cells were treated with compound I-1 by adding directly to the medium to give the concentration indicated in the figures. Cells were allowed to grow until visible colonies formed (10 days). Cell colonies were fixed with 4% paraformaldehyde in PBS (phosphate-buffered saline), stained with 0.25% crystal violet in 25% methanol, washed and air-dried.

PC3 cells = assay: Flow cytometric analysis of cell cycle (propidium iodide) in PC3; settings: 10 μM
Experimental: FIG. 11. Compound I-1 induces cell cycle arrest and apoptosis in PC3 cells. Prostate cancer cells were left untreated (−) or treated with compound I-1 (10 μM) or with vehicle (DMSO) for the time indicated in the figure. (A) For flow cytometric analysis of cell cycle parameters, cells were fixed, and stained with propidium iodide. Each histogram indicates the percent of cells in G1, S, and G2/M phases of the cell cycle. Data were gated to exclude apoptotic cells for these calculations. (B) After treatment, cells were lysed and total lysates were analyzed for cellular apoptotic markers by immunoblotting using anti-PARP-1 or anti-cleaved Caspase-3 antibodies. Anti-GAPDH-1 antibody was used as loading control. (C) Some 48 h-treated PC3 cells were harvest by trypsinization, washed with PBS, and total DNA was extracted then analyzed on a 1.8% agarose gel. M indicates DNA size marker (base pairs).
Flow cytometric assays of cell cycle and cell death. Cells in fresh complete medium were plated (2×10^5 per well) into six-well plates for 18 h. After complete adhesion, cells were treated as indicated in the figures and harvested by trypsinization. […] Cells were then analyzed by flow cytometry using a FACScalibur cytometer (BD Biosciences, Mountain View, Calif.) and FlowJo program (Tree Star, Inc., Ashland, Oreg.).

C[C@@H]1CC[C@H]2C3C(O[C@]4([C@]5(O)CC6(C)C(=O)OC5C[C@@]6(C)O)CC[C@@]31O4)[C@H]1O[C@]13CC=CC(=O)[C@]23C (stereo partly shown) [I-1]
concentration of maximum antiproliferative activity [1]: 10 µM | effect on colony formation (DU145 cells; 2.5 μM, 10 days): Inhibitory effects | concentration that blocked the capacity of single cancer cells to generate colonies (DU145 cells; 10 days of treatment): ≥ 5 µM | G2/M arrest (PC3 cells): able to cause G2/M arrest
